# Experimental data published in patent US20110039879A1, “METHODS FOR INCREASING WHITE BLOOD CELLS” (FibroGen ,Inc., priority 2007, published 2011).
# Marks after values point to notes of the source that are not given here.
# What was measured:
# [1] = test system: hematopoietic progenitor cells (HPCs); assay: Hematopoietic progenitor cells (Sca-1+/c-Kit+) in blood by FACS analysis; type: in vivo, Swiss-Webster mice; conditions: mice, oral gavage, blood 6 h after final dosing
# Procedure: (§1) To examine the effect of compounds and methods of the present invention on hematopoietic progenitor cell (HPC) and neutrophil levels, the following studies were performed. Male Swiss-Webster mice were administered various compounds of the present invention via oral gavage using a ball-tipped gavage needle. Animals treated by oral gavage received a 10 ml/kg volume of either 0.5% carboxymethyl cellulose (CMC) with 0.1% Polysorbate 80 (vehicle control) or various doses (10-100 mg/kg) of a compound of the present invention in 0.5% CMC with 0.1% Polysorbate 80. Animals were dosed once daily for 3 or 4 days.
# (§2) Six hours after the final dosing, 200 μl blood samples were collected for detection of hematopoietic progenitor cells (HPCs) and neutrophils by FACS analysis using methods previously described. (See, e.g., Wang et al. (1997) J Leukoc Biol 62 503-9 and Legasse et al. (1996) J Immunol Methods 197:139-50.) Briefly, leukocytes and progenitor cells were isolated from whole blood samples following erythrocyte depletion using red blood cell lysis buffer (eBioscience) according to the manufacturer's instructions. The remaining cells were incubated for one hour with monoclonal antibodies directed against mouse Sca-1 and mouse c-Kit (cell surface markers for HPCs, BD Pharmingen), or mouse Mac-1 and mouse Gr-1 (cell surface markers for murine neutrophils, BD Pharmingen). Following incubation with the monoclonal antibodies, the cells were washed three times with sort buffer (PBS, 1% fetal bovine serum) and resuspended in sort buffer containing 50 μg/ml of propidium iodide. Samples were then analyzed for the presence and quantitation of HPCs and neutrophils by flow cytometry (FACS Calibur, Becton Dickinson). The cytometer was set to acquire 10 000 events. Two or three blood samples obtained from each animal were analyzed and the average recorded. Hematopoietic progenitor cells were determined as double positive Sca-1+/c-Kit+ cells and neutrophils were determined as double positive Mac-1+/Gr-1+ cells.
# neutrophils [2] = assay: Neutrophils (Mac-1+/Gr-1+) in blood by FACS analysis; type: in vivo, Swiss-Webster mice; conditions: mice, oral gavage, blood 6 h after final dosing
# Procedure: as §1, §2
# [3] = test system: hematopoietic progenitor cells (HPCs) in bone marrow; assay: Hematopoietic progenitor cells in bone marrow by FACS analysis; type: in vivo, Swiss-Webster mice; conditions: mice, oral gavage, tibia bone marrow 6 h after final dosing
# Procedure: as §2
# (§3) To examine the effect of compounds and methods of the present invention on hematopoietic progenitor cell (HPC) and neutrophil levels in bone marrow, the following studies were performed. Male Swiss-Webster mice were administered various compounds of the present invention via oral gavage using a ball-tipped gavage needle. Animals treated by oral gavage received a 10 ml/kg volume of either 0.5% carboxymethyl cellulose (CMC) with 0.1% Polysorbate 80 (vehicle control) or various doses (10-100 mg/kg) of a compound of the present invention in 0.5% CMC with 0.1% Polysorbate 80. Animals were dosed once daily for 3 or 4 days. Six hours after the final dosing, bone marrow samples were taken from one tibia of each animal and suspended in buffer (PBS with 1% fetal bovine serum). Bone marrow suspensions were then filtered through nylon filters to remove stromal cells. Following filtration, the remaining cells were counted manually using a hemocytometer. Detection and quantitation of HPCs and neutrophils were performed by FACS analysis as described above in Example 1.
# [4] = test system: neutrophils in bone marrow; assay: Neutrophils in bone marrow by FACS analysis; type: in vivo, Swiss-Webster mice; conditions: mice, oral gavage, tibia bone marrow 6 h after final dosing
# Procedure: as §2, §3
# [5] = test system: total white blood cell (WBC); assay: Total white blood cells by complete blood count, once daily dosing 3 or 4 days; type: in vivo, Swiss-Webster mice; conditions: mice, oral gavage, blood 6 h after final dosing
# Procedure: as §1, with “increasing white blood cells,” for “hematopoietic progenitor cell (HPC) and neutrophil levels,”, “In one series of experiments, male” for “Male”, “days. Six hours after the final dosing, 200 μl blood samples were collected and total white blood cell, neutrophil, and lymphocyte levels were measured by complete blood count (CBC) using a CellDyn cell analyzer (Abbott Laboratories).” for “days.”
# neutrophils [6] = assay: Neutrophils by complete blood count, once daily dosing 3 or 4 days; type: in vivo, Swiss-Webster mice; conditions: mice, oral gavage, blood 6 h after final dosing, CBC
# Procedure: as §1, with “increasing white blood cells,” for “hematopoietic progenitor cell (HPC) and neutrophil levels,”, “In one series of experiments, male” for “Male”, “days. Six hours after the final dosing, 200 μl blood samples were collected and total white blood cell, neutrophil, and lymphocyte levels were measured by complete blood count (CBC) using a CellDyn cell analyzer (Abbott Laboratories).” for “days.”
# lymphocytes [7] = assay: Lymphocytes by complete blood count, once daily dosing 3 or 4 days; type: in vivo, Swiss-Webster mice; conditions: mice, oral gavage, blood 6 h after final dosing, CBC
# Procedure: as §1, with “increasing white blood cells,” for “hematopoietic progenitor cell (HPC) and neutrophil levels,”, “In one series of experiments, male” for “Male”, “days. Six hours after the final dosing, 200 μl blood samples were collected and total white blood cell, neutrophil, and lymphocyte levels were measured by complete blood count (CBC) using a CellDyn cell analyzer (Abbott Laboratories).” for “days.”
# [8] = test system: total white blood cell (WBC); assay: Chemotherapy (cisplatin)-induced leukopenia, total WBC by CBC; type: in vivo, Sprague Dawley rats; conditions: rats; for total white blood cell levels in the cisplatin-treated animals (in words): Compound S 60 mg/kg or Compound B 40 mg/kg oral gavage day 0, 2, 4; for Total WBC / Total WBC % Change from Control: blood day 4; for Total WBC % Change from Control: vs healthy control
# Procedure: (§4) To examine the effect of compounds and methods of the present invention on increasing white blood cells, the following studies were performed. In one series of experiments, male Swiss-Webster mice were administered various compounds of the present invention via oral gavage using a ball-tipped gavage needle. Animals treated by oral gavage received a 10 ml/kg volume of either 0.5% carboxymethyl cellulose (CMC) with 0.1% Polysorbate 80 (vehicle control) or various doses (10-100 mg/kg) of a compound of the present invention in 0.5% CMC with 0.1% Polysorbate 80. Animals were dosed once daily for 3 or 4 days. […] The following study was performed to examine the effect of compounds and methods of the present invention on treatment of chemotherapy-induced leukopenia. Thirty-eight Sprague Dawley male rats (280-300 g) were obtained from Charles River Laboratories. Six rats served as healthy controls. On day 0, the remaining thirty-two rats were treated by intravenous injection (i.v.) with a single dose of cisplatin (CP) (Bedford Laboratories, Bedford Ohio) at 5 mg/kg and by oral gavage with one of the following: Compound S at 60 mg/kg; Compound B at 40 mg/kg; or vehicle 2 ml/kg. Compound was administered on day 0, day 2, and day 4 with the first dose given two hours before the CP injection. Blood samples (0.2 ml) were collected on day 4 as follows. Animals were anesthetized with isoflurane and 0.2 ml of blood was collected from the tail vein into a MICROTAINER EDTA-2K tube (Becton-Dickinson). Blood samples were processed to measure total white blood cell, neutrophil, and lymphocyte levels by CBC analysis as described above in Example 3.
# neutrophils [9] = assay: Chemotherapy (cisplatin)-induced leukopenia, neutrophils by CBC; type: in vivo, Sprague Dawley rats; conditions: rats, blood day 4; for Neutrophils % Change from Control: vs healthy control
# Procedure: as §4
# lymphocytes [10] = assay: Chemotherapy (cisplatin)-induced leukopenia, lymphocytes by CBC; type: in vivo, Sprague Dawley rats; conditions: rats, blood day 4; for Lymphocytes % Change from Control: vs healthy control
# Procedure: as §4
# [11] = 100 mg/kg once daily for 4 days
# [12] = cisplatin 5 mg/kg i.v. day 0, compound 40 mg/kg oral gavage day 0, day 2, day 4
# [13] = cisplatin 5 mg/kg i.v. day 0, compound 60 mg/kg oral gavage day 0, day 2, day 4
# [14] = cisplatin 5 mg/kg i.v. single dose day 0 plus vehicle by oral gavage
structure (smiles),measurement,setting,value
"Cc1nc(C(=O)NCC(=O)O)c(O)c2ccc(Oc3ccccc3)cc12 [Compound B, [(4-Hydroxy-1-methyl-7-phenoxy-isoquinoline-3-carbonyl)-amino]-acetic acid]",Blood HPCs,[1]; 60 mg/kg once daily for 3 days,67 cells/μl
same,Blood HPCs Fold Increase Over Control,[1]; 60 mg/kg once daily for 3 days,1.5 fold
same,Percent Blood HPCs,[1]; 60 mg/kg once daily for 3 days,0.7 % gated cells
same,Percent Blood HPCs Fold Increase Over Control,[1]; 60 mg/kg once daily for 3 days,1.1 fold
same,Blood HPCs,[1]; [11],126 cells/μl
same,Blood HPCs Fold Increase Over Control,[1]; [11],7.4 fold
same,Percent Blood HPCs,[1]; [11],1.2 % gated cells
same,Percent Blood HPCs Fold Increase Over Control,[1]; [11],3.8 fold
same,Blood Neutrophils,neutrophils [2]; 60 mg/kg once daily for 3 days,126 cells/μl
same,Blood Neutrophils Fold Increase Over Control,neutrophils [2]; 60 mg/kg once daily for 3 days,1.3 fold
same,Percent Blood Neutrophils,neutrophils [2]; 60 mg/kg once daily for 3 days,1.2 % gated cells
same,Percent Blood Neutrophils Fold Increase Over Control,neutrophils [2]; 60 mg/kg once daily for 3 days,0.9 fold
same,Blood Neutrophils,neutrophils [2]; [11],936 cells/μl
same,Blood Neutrophils Fold Increase Over Control,neutrophils [2]; [11],5.3 fold
same,Percent Blood Neutrophils,neutrophils [2]; [11],9.1 % gated cells
same,Percent Blood Neutrophils Fold Increase Over Control,neutrophils [2]; [11],2.7 fold
same,Percent Bone Marrow HPCs,[3]; 60 mg/kg once daily for 3 days,6.3 % gated cells
same,Percent Bone Marrow HPCs Fold Increase Over Control,[3]; 60 mg/kg once daily for 3 days,1.7 fold
same,Percent Bone Marrow HPCs,[3]; [11],7.0 % gated cells
same,Percent Bone Marrow HPCs Fold Increase Over Control,[3]; [11],1.6 fold
same,Percent Bone Marrow Neutrophils,[4]; 60 mg/kg once daily for 3 days,34.7 % gated cells
same,Percent Bone Marrow Neutrophils Fold Increase Over Control,[4]; 60 mg/kg once daily for 3 days,1.1 fold
same,Percent Bone Marrow Neutrophils,[4]; [11],33.6 % gated cells
same,Percent Bone Marrow Neutrophils Fold Increase Over Control,[4]; [11],1.3 fold
same,Total WBC,[5]; 60 mg/kg once daily for 3 days,8.80 10^3 cells/μl
same,Total WBC % Increase Over Control,[5]; 60 mg/kg once daily for 3 days,82%
same,Total WBC,[5]; [11],10.24 10^3 cells/μl
same,Total WBC % Increase Over Control,[5]; [11],94%
same,Neutrophils,neutrophils [6]; 60 mg/kg once daily for 3 days,1.28 10^3 cells/μl
same,Neutrophils % Increase Over Control,neutrophils [6]; 60 mg/kg once daily for 3 days,110%
same,Neutrophils,neutrophils [6]; [11],0.96 10^3 cells/μl
same,Neutrophils % Increase Over Control,neutrophils [6]; [11],66%
same,Lymphocytes,lymphocytes [7]; 60 mg/kg once daily for 3 days,7.40 10^3 cells/μl
same,Lymphocytes % Increase Over Control,lymphocytes [7]; 60 mg/kg once daily for 3 days,82%
same,Lymphocytes,lymphocytes [7]; [11],9.18 10^3 cells/μl
same,Lymphocytes % Increase Over Control,lymphocytes [7]; [11],101%
same,total white blood cell levels in the cisplatin-treated animals (in words),"[8]; 5 mg/kg cisplatin, day 4",increased total white blood cell levels
same,Total WBC,[8]; [12],16.8 10^3 cells/μl
same,Total WBC % Change from Control,"[8]; cisplatin 5 mg/kg i.v. day 0, compound 40 mg/kg oral gavage day 0, day 2, day 4, reduction not statistically significant",−1* %
same,Neutrophils,neutrophils [9]; [12],2.2 10^3 cells/μl
same,Neutrophils % Change from Control,neutrophils [9]; [12],7%
same,Lymphocytes,lymphocytes [10]; [12],14.7 10^3 cells/μl
same,Lymphocytes % Change from Control,lymphocytes [10]; [12],9%
"O=C(O)CNC(=O)c1nc(Cl)c2ccccc2c1O [Compound S, [(1-Chloro-4-hydroxy-isoquinoline-3-carbonyl)-amino]-acetic acid]",total white blood cell levels in the cisplatin-treated animals (in words),"[8]; 5 mg/kg cisplatin, day 4",increased total white blood cell levels
same,Total WBC,[8]; [13],20.2 10^3 cells/μl
same,Total WBC % Change from Control,[8]; [13],19%
same,Neutrophils,neutrophils [9]; [13],2.2 10^3 cells/μl
same,Neutrophils % Change from Control,neutrophils [9]; [13],7%
same,Lymphocytes,lymphocytes [10]; [13],16.2 10^3 cells/μl
same,Lymphocytes % Change from Control,lymphocytes [10]; [13],21%
"N.N.[Cl][Pt][Cl] [cisplatin, reference compound]",reduction of total white blood cell levels compared to non-treated control animals,"[8]; 5 mg/kg cisplatin, day 4",21%
same,Total WBC,[8]; [14],13.3 10^3 cells/μl
same,Total WBC % Change from Control,[8]; [14],−21%
same,Neutrophils,neutrophils [9]; [14],1.6 10^3 cells/μl
same,Neutrophils % Change from Control,neutrophils [9]; [14],−22%
same,Lymphocytes,lymphocytes [10]; [14],10.1 10^3 cells/μl
same,Lymphocytes % Change from Control,lymphocytes [10]; [14],−24%
